Values of other authors, collected in patent US6596714B1, “Parasiticidal formulation for animals and a method of making this formulation” (Phoenix Scientific, Inc., priority 2000, dated 2003).

System: cestode infestations

SMILES: CN1CCCN=C1/C=C/c1cccs1 [pyrantel pamoate]
- Effectiveness in treating cestode infestations (about three times the label recommended dosage, about 19.8 milligrams per kilogram of animal): about 100%
- Average efficacy against cestode infestations (label dosage of about 6.6 milligrams per kilogram of animal, paste formulations, average): about 85%
